Measurements as given in PMC12440775 (Frontiers in Pharmacology, 2025).
Where two headings read alike, the source gives them in different places.

Experiments:
[1] = Single ascending dose plasma pharmacokinetics (Part 1); assay type: in vivo, human; settings: for half-life / AUC(0-inf) / Cmax / Tmax / AUC(0-t) / Vd/F: male, human, plasma; for Vd/F: read-out: Vz/F
Procedure: One dose level was tested within each group. Subject groups were dosed and evaluated sequentially, beginning with the lowest-dose group and proceeding stepwise to the highest-dose group.
Blood samples were taken pre-dose (0) and at prespecified time points after dosing (Figure 1). At each time point, approximately 4.9 mL of blood was drawn into evacuated collection tubes, containing ethylene diamine tetraacetate (EDTA) anticoagulant and labeled with sample identification information. The EDTA-anticoagulated blood samples were immediately placed on ice and centrifuged at 4 °C and approximately 2000–4,000 g for approximately 10 min in a refrigerated centrifuge as soon as possible after collection. The harvested plasma was split into two aliquots, immediately placed in appropriately labeled tubes, and stored at −20 °C or below until shipment.
Standard formulas for non-compartmental pharmacokinetic analysis provided by WinNonlin were used in determination of the maximum concentration (Cmax), time to maximum concentration (tmax), oral clearance (CL/F), mean residence time (MRTpo), and apparent volume distribution in terminal phase (Vz/F). The area under the plasma concentration–time curve (AUC) was calculated using a linear up/log down trapezoidal algorithm. The predicted concentration at the last time-point with quantifiable concentration was used for extrapolation of AUC. The fraction excreted as unchanged drug in urine (fe) was calculated as the percentage of the amount of drug excreted in urine as unchanged drug (Aet1–t2) compared to the administered dose ([Huang et al., 2008b]).
The power model was used for the analysis of dose proportionality in terms of AUC0– ∞ and Cmax. The model is described using the following equation: Ykm = α•Dk ^β •ekm. […] Dose linearity requires that β equals 1. […] Statistical analysis was performed using the SAS® program system (version 8.2, Cary, NC) ([Huang et al., 2008b]).

[2] = design: method as in Duan et al., 2012; settings: rats; ref Duan et al., 2012; cited from earlier work

C=C[C@@H]1C[C@]1(NC(=O)[C@@H]1C[C@@H](Oc2cc(-c3csc(NC(=O)C(C)C)n3)nc3c(Br)c(OC)ccc23)CN1C(=O)[C@@H](NC(=O)OC1CCCC1)C(C)(C)C)C(=O)O [FDV, Faldaprevir]
Inter-subject variability, gCV of AUC0–∞ ([1]; higher-dose groups): 60–80% | half-life ([1]; oral, range over single doses of 4–1,200 mg, read-out: gMean t1/2): 15.5 to 39.2 h | AUC(0-inf) ([1]; oral, range over single doses of 4–1,200 mg, read-out: geometric mean (gMean) AUC0-inf): 254 to 402000 ng·h/mL | Cmax ([1]; oral, range over single doses of 4–1,200 mg, read-out: geometric mean (gMean) Cmax): 3.57 to 16500 ng/mL | Tmax ([1]; oral, range over single doses of 4–1,200 mg, read-out: median tmax): 4 to 14 h | AUC(0-t) ([1]; po, 4 mg): 201 ng·h/mL | half-life ([1]; po, 4 mg, FDV 4 mg single oral dose, fasted, gMean (gCV%), read-out: t½ (converted)): ~39 h | AUC(0-inf) ([1]; po, 4 mg, read-out: AUC0–∞): 254 ng·h/mL | Cmax ([1]; po, 4 mg, read-out: Cmax): 3.6 ng/mL | Vd/F ([1]; po, 4 mg): 868 L | Tmax ([1]; po, 4 mg, read-out: tmax): 14 h | AUC(0-t) ([1]; po, 16 mg): 1030 ng·h/mL | half-life ([1]; po, 16 mg, FDV 16 mg single oral dose, fasted, gMean (gCV%), read-out: t½ (converted)): 31.8 h | Cmax ([1]; po, 16 mg, read-out: Cmax): 22.8 ng/mL | Vd/F ([1]; po, 16 mg): 600 L | Tmax ([1]; po, 16 mg, read-out: tmax): 8 h | AUC(0-t) ([1]; po, 48 mg): 3280 ng·h/mL | half-life ([1]; po, 48 mg, FDV 48 mg single oral dose, fasted, gMean (gCV%), read-out: t½ (converted)): 37.7 h | AUC(0-inf) ([1]; po, 48 mg, read-out: AUC0–∞): 3980 ng·h/mL | Cmax ([1]; po, 48 mg, read-out: Cmax): 86.6 ng/mL | Vd/F ([1]; po, 48 mg): 640 L | Tmax ([1]; po, 48 mg, read-out: tmax): 8 h | AUC(0-t) ([1]; po, 120 mg): 9660 ng·h/mL | half-life ([1]; po, 120 mg, FDV 120 mg single oral dose, fasted, gMean (gCV%), read-out: t½ (converted)): 27.4 h | AUC(0-inf) ([1]; po, 120 mg, read-out: AUC0–∞): 10700 ng·h/mL | Cmax ([1]; po, 120 mg, read-out: Cmax): 344 ng/mL | Vd/F ([1]; po, 120 mg): 435 L | Tmax ([1]; po, 120 mg, read-out: tmax): 7 h | AUC(0-t) ([1]; po, 240 mg): 36100 ng·h/mL | half-life ([1]; po, 240 mg, FDV 240 mg single oral dose, fasted, gMean (gCV%), read-out: t½ (converted)): 22.2 h | AUC(0-inf) ([1]; po, 240 mg, read-out: AUC0–∞): 37400 ng·h/mL | Cmax ([1]; po, 240 mg, read-out: Cmax): 2070 ng/mL | Vd/F ([1]; po, 240 mg): 200 L | Tmax ([1]; po, 240 mg, read-out: tmax): 4 h | AUC(0-t) ([1]; po, 480 mg): 74100 ng·h/mL | half-life ([1]; po, 480 mg, FDV 480 mg single oral dose, fasted, gMean (gCV%), read-out: t½ (converted)): 33.3 h | AUC(0-inf) ([1]; po, 480 mg, read-out: AUC0–∞): 80700 ng·h/mL | Cmax ([1]; po, 480 mg, read-out: Cmax): 4300 ng/mL | Vd/F ([1]; po, 480 mg): 278 L | Tmax ([1]; po, 480 mg, read-out: tmax): 4 h | AUC(0-t) ([1]; po, 800 mg): 127000 ng·h/mL | half-life ([1]; po, 800 mg, FDV 800 mg single oral dose, fasted, gMean (gCV%), read-out: t½ (converted)): ~16 h | AUC(0-inf) ([1]; po, 800 mg, read-out: AUC0–∞): 128000 ng·h/mL | Cmax ([1]; po, 800 mg, read-out: Cmax): 6630 ng/mL | Vd/F ([1]; po, 800 mg): 141 L | Tmax ([1]; po, 800 mg, read-out: tmax): 9 h | AUC(0-t) ([1]; po, 1200 mg): 397000 ng·h/mL | half-life ([1]; po, 1200 mg, FDV 1,200 mg single oral dose, fasted, gMean (gCV%), read-out: t½ (converted)): ~16 h | AUC(0-inf) ([1]; po, 1200 mg, read-out: AUC0–∞): 402000 ng·h/mL | Cmax ([1]; po, 1200 mg, read-out: Cmax): 16500 ng/mL | Vd/F ([1]; po, 1200 mg): 65 L | Tmax ([1]; po, 1200 mg, read-out: tmax): 8 h | Inter-subject variability, gCV of AUC0–∞ ([1]; most of the lower-dose groups): approximately 30% | Enrichment in the liver compared with plasma [2]: 42 fold
